Patent US4652575A, “2-(ethylene-thio methyl furanyl)amino thiazole derivatives having acid secretion inhibiting activity” (Medosan Industrie Biochimiche Riunite S.p.A., priority 1984, dated 1987)
Read-outs that look alike come from different tables or passages of the source.

Experiments:
histamine H2 receptors [1] = molecular target: T1, histamine H2 receptors (Cavia porcellus, UniProt P47747); experiment: Antagonistic activity to the histamine H2 receptors "in vitro" on insulated atrium auricolas of Guinea pig heart; settings: guinea pig, 0.5 h
T1 construct: tests on insulated atrium auricolas of Guinea pig heart; from tissue; host or cells: isolated guinea pig heart atrium
T1 sequence (P47747 whole entry): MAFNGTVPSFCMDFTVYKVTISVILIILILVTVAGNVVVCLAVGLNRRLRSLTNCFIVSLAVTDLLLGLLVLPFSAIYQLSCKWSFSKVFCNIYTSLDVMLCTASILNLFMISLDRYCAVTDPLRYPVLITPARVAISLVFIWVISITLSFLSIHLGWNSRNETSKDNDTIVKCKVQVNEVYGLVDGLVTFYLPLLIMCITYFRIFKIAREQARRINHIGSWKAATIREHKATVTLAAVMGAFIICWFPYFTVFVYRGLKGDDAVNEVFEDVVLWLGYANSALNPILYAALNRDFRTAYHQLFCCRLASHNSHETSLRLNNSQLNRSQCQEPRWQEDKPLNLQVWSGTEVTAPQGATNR

histamine H2 receptors [2] = molecular target: T1, histamine H2 receptors; settings: Daly M. J., Br. J. Pharmac., 72, 49, 1982; cited from earlier work
gastric acid secretion = settings: experimental tests on animals and humans; prior art; cited from earlier work
[3] = Acute toxicity (DL50) in rat; settings: in vivo, po
From the text: The animals were kept under observation by checking mortality and possible pain signs for 15 days from start of test.

gastric secretion = experiment: Activity on gastric secretion "in vivo" (volume and total acidity of gastric juice after pylorus tieing, Shay); parameters: species or system male Wistar rats; settings: for Total acidity gastric juice secretion / Volume gastric juice secretion / change in vivo at 20 mg/kg: 20 mg/kg oral; for change in vivo at 20 mg/kg / ED50: Rattus norvegicus, po; for ED50: read-out: DE50 in rat calculated on total acidity (mEq/4 hours)

CNC(=C[N+](=O)[O-])NCCSCc1ccc(CN(C)C)o1 [Ranitidine, reference compound]
inhibition at 10 µM (histamine H2 receptors [1]; read-out: Antagonizing activity to histamine H2 receptors, compound 1·10^-5 M/L, histamine 1·10^-5 M/L): 90% | inhibition at 10 µM (histamine H2 receptors [1]; read-out: Antagonizing activity to histamine H2 receptors, compound 1·10^-5 M/L, histamine 1·10^-6 M/L): 100% | inhibition at 10 µM (histamine H2 receptors [1]; read-out: Antagonizing activity to histamine H2 receptors, compound 1·10^-5 M/L, histamine 2,5·10^-7 M/L): 100% | inhibition at 10 µM (histamine H2 receptors [1]; read-out: Antagonizing activity to histamine H2 receptors, compound 1·10^-5 M/L, histamine 5·10^-6 M/L): 95% | inhibition at 10 µM (histamine H2 receptors [1]; read-out: Antagonizing activity to histamine H2 receptors, compound 1·10^-5 M/L, histamine 5·10^-7 M/L): 100% | inhibition at 1 µM (histamine H2 receptors [1]; read-out: Antagonizing activity to histamine H2 receptors, compound 1·10^-6 M/L, histamine 1·10^-5 M/L): 36% | inhibition at 1 µM (histamine H2 receptors [1]; read-out: Antagonizing activity to histamine H2 receptors, compound 1·10^-6 M/L, histamine 1·10^-6 M/L): 97% | inhibition at 1 µM (histamine H2 receptors [1]; read-out: Antagonizing activity to histamine H2 receptors, compound 1·10^-6 M/L, histamine 2,5·10^-7 M/L): 100% | inhibition at 1 µM (histamine H2 receptors [1]; read-out: Antagonizing activity to histamine H2 receptors, compound 1·10^-6 M/L, histamine 5·10^-6 M/L): 67% | inhibition at 1 µM (histamine H2 receptors [1]; read-out: Antagonizing activity to histamine H2 receptors, compound 1·10^-6 M/L, histamine 5·10^-7 M/L): 100% | inhibition at 0.1 µM (histamine H2 receptors [1]; read-out: Antagonizing activity to histamine H2 receptors, compound 1·10^-7 M/L, histamine 1·10^-5 M/L): 2% | inhibition at 0.1 µM (histamine H2 receptors [1]; read-out: Antagonizing activity to histamine H2 receptors, compound 1·10^-7 M/L, histamine 1·10^-6 M/L): 45% | inhibition at 0.1 µM (histamine H2 receptors [1]; read-out: Antagonizing activity to histamine H2 receptors, compound 1·10^-7 M/L, histamine 2,5·10^-7 M/L): 85% | inhibition at 0.1 µM (histamine H2 receptors [1]; read-out: Antagonizing activity to histamine H2 receptors, compound 1·10^-7 M/L, histamine 5·10^-6 M/L): 25% | inhibition at 0.1 µM (histamine H2 receptors [1]; read-out: Antagonizing activity to histamine H2 receptors, compound 1·10^-7 M/L, histamine 5·10^-7 M/L): 70% | antagonism of histamine induced increase of contraction frequency of the insulated atrium (in words) (histamine H2 receptors [2]): competitively antagonize | reduction of gastric acid secretion (in words) (gastric acid secretion): effective to reduce the gastric acid secretion | LD50 [3]: 2000 mg/kg | LD50 at 360 h [3]: 1600 mg/kg | Total acidity gastric juice secretion (gastric secretion; 6 hours before pilorus tieing): 0,12 mEq/4 hours | Volume gastric juice secretion (gastric secretion; 6 hours before pilorus tieing): 4,8 ml/4 hours | Total acidity gastric juice secretion (gastric secretion; 12 hours before pilorus tieing): 0,16 mEq/4 hours | Volume gastric juice secretion (gastric secretion; 12 hours before pilorus tieing): 4,9 ml/4 hours | Total acidity gastric juice secretion (gastric secretion; 24 hours before pilorus tieing): 0,17 mEq/4 hours | Volume gastric juice secretion (gastric secretion; 24 hours before pilorus tieing): 5,3 ml/4 hours | Total acidity gastric juice secretion (gastric secretion; 36 hours before pilorus tieing): 0,16 mEq/4 hours | Volume gastric juice secretion (gastric secretion; 36 hours before pilorus tieing): 5,4 ml/4 hours | change in vivo at 20 mg/kg (gastric secretion; 6 hours before pilorus tieing, read-out: Total acidity gastric juice secretion, Variation %): -29% | change in vivo at 20 mg/kg (gastric secretion; 6 hours before pilorus tieing, read-out: Volume gastric juice secretion, Variation %): -9% | change in vivo at 20 mg/kg (gastric secretion; 12 hours before pilorus tieing, read-out: Total acidity gastric juice secretion, Variation %): 6% | change in vivo at 20 mg/kg (gastric secretion; 12 hours before pilorus tieing, read-out: Volume gastric juice secretion, Variation %): -4% | change in vivo at 20 mg/kg (gastric secretion; 24 hours before pilorus tieing, read-out: Total acidity gastric juice secretion, Variation %): 0% | change in vivo at 20 mg/kg (gastric secretion; 24 hours before pilorus tieing, read-out: Volume gastric juice secretion, Variation %): -5% | change in vivo at 20 mg/kg (gastric secretion; 36 hours before pilorus tieing, read-out: Total acidity gastric juice secretion, Variation %): 0% | change in vivo at 20 mg/kg (gastric secretion; 36 hours before pilorus tieing, read-out: Volume gastric juice secretion, Variation %): -3% | ED50 (gastric secretion; per os, 1 hour before pilorus tieing): 5.2 mg/kg

CN/C(=N/CCSCc1nc[nH]c1C)NC#N [Cimetidine, reference compound]
inhibition at 10 µM (histamine H2 receptors [1]; compound 1·10^-5 M/L, histamine 1·10^-5 M/L, read-out: Antagonizing activity to histamine H2 receptors): 28% | inhibition at 10 µM (histamine H2 receptors [1]; compound 1·10^-5 M/L, histamine 1·10^-6 M/L, read-out: Antagonizing activity to histamine H2 receptors): 100% | inhibition at 10 µM (histamine H2 receptors [1]; compound 1·10^-5 M/L, histamine 2,5·10^-7 M/L, read-out: Antagonizing activity to histamine H2 receptors): 100% | inhibition at 10 µM (histamine H2 receptors [1]; compound 1·10^-5 M/L, histamine 5·10^-6 M/L, read-out: Antagonizing activity to histamine H2 receptors): 50% | inhibition at 10 µM (histamine H2 receptors [1]; compound 1·10^-5 M/L, histamine 5·10^-7 M/L, read-out: Antagonizing activity to histamine H2 receptors): 100% | inhibition at 1 µM (histamine H2 receptors [1]; compound 1·10^-6 M/L, histamine 1·10^-5 M/L, read-out: Antagonizing activity to histamine H2 receptors): 10% | inhibition at 1 µM (histamine H2 receptors [1]; compound 1·10^-6 M/L, histamine 1·10^-6 M/L, read-out: Antagonizing activity to histamine H2 receptors): 90% | inhibition at 1 µM (histamine H2 receptors [1]; compound 1·10^-6 M/L, histamine 2,5·10^-7 M/L, read-out: Antagonizing activity to histamine H2 receptors): 100% | inhibition at 1 µM (histamine H2 receptors [1]; compound 1·10^-6 M/L, histamine 5·10^-6 M/L, read-out: Antagonizing activity to histamine H2 receptors): 40% | inhibition at 1 µM (histamine H2 receptors [1]; compound 1·10^-6 M/L, histamine 5·10^-7 M/L, read-out: Antagonizing activity to histamine H2 receptors): 90% | inhibition at 0.1 µM (histamine H2 receptors [1]; compound 1·10^-7 M/L, histamine 1·10^-5 M/L, read-out: Antagonizing activity to histamine H2 receptors): 0% | inhibition at 0.1 µM (histamine H2 receptors [1]; compound 1·10^-7 M/L, histamine 1·10^-6 M/L, read-out: Antagonizing activity to histamine H2 receptors): 45% | inhibition at 0.1 µM (histamine H2 receptors [1]; compound 1·10^-7 M/L, histamine 2,5·10^-7 M/L, read-out: Antagonizing activity to histamine H2 receptors): 80% | inhibition at 0.1 µM (histamine H2 receptors [1]; compound 1·10^-7 M/L, histamine 5·10^-6 M/L, read-out: Antagonizing activity to histamine H2 receptors): 22% | inhibition at 0.1 µM (histamine H2 receptors [1]; compound 1·10^-7 M/L, histamine 5·10^-7 M/L, read-out: Antagonizing activity to histamine H2 receptors): 80% | antagonism of histamine induced increase of contraction frequency of the insulated atrium (in words) (histamine H2 receptors [2]): competitively antagonize | reduction of gastric acid secretion (in words) (gastric acid secretion): effective to reduce the gastric acid secretion | ED50 (gastric secretion): 30 mg/kg
